# Results reported in patent publication US10767151B2, “Device for cell culture” (priority 2008, dated 2020).
# Entries after “also recorded” stand apart in the source; their conditions may differ. Where a SMILES comes first, the peptide text is derived from it. [ ]: non-standard residue; d: D form. The star is where a group is joined. Nle = CCCC[C@H](N)C(=O)O; Cbz = O=C(OCc1ccccc1)*; CH2F = FC*
# What was measured:
# Assay type in all cases: cell-based, mouse
# Cerebellar neurons = assay: Axonal degeneration of cerebellar neurons after somatic staurosporin, microfluidic device D1 (Example 14); details: for axon-protecting effect against staurosporin-induced axonal degeneration: compound applied concomitantly to the axons only, staurosporin on the somas
# Experimental: Cerebellar neurons are seeded into microfluidic devices according to the invention and treated with an apoptosis inducer (1 μM staurosporin, STS) at the somatic level. This induces axonal degeneration in the distal chamber (Phi). Apoptosis-blocking compounds (zVAD) or proteases of calpain type (Cal-Inh) are applied specifically to the axons (and not to the somas). The “axon-protecting” effect is quantified on the graph on the right in FIG. 19. Devices D1 are used. Neurons (in this case from the cerebellum) are seeded and their axons pass through the asymmetrical microchannels so as to reach the second chamber (or the 3rd if the device has three compartments). A stress (in this case staurosporin, which is a pro-apoptotic agent) is applied to the soma of the neurons. […] The effect of “axon-protecting” molecules can thus be evaluated. FIG. 19 illustrates the start of axonal degeneration induced by the application of a pro-apoptotic stress applied to the somato-dendritic compartment of neurons. This causes the propagation of a destructive signal in the axon, which then degenerates early, before the cell soma.
# striatal erk kinase = assay: Phosphorylation of striatal erk kinase in corticostriatal network, device D3 (Example 13); details: after seven days in vitro; cortical depolarization
# Experimental: FIG. 18 represents microfluidic chambers separated by asymmetrical microchannels.
# This experiment was carried out with the device D3.
# The cortical neurons are seeded on the left and the striatal neurons on the right. After seven days in vitro, the cortical axons establish connections with the striatal neurons (β3-tubulin in green, striatal neurons in red (MAP2)).
# cortical neurons = assay: Saponin axotomy of cortical neurons in three-chamber device, axonal fragmentation by tubulin labeling (Example 20); details: for occurrence of axon fragmentation after axotomy: 50 μM applied to the distal segments of axons at the time of axotomy, FIG. 29; for protective effect against axon fragmentation after axotomy: applied 24 h before axotomy (not shown)
# Experimental: The cortices of 14-day mouse embryos are dissected and dissociated as has already been described elsewhere, for example Eur J Neurosci 2001 June; 13(11): 2037-46 William S et al. The neurons are seeded into the somatic chamber (also called compartment) of the circuits at a density of 10^5 cells/cm^2. In this manner, about 4×10^4 neurons are seeded into the somatic chamber. The culture medium consists of DMEM containing 4.5 g/l D-glucose and pyruvate (Invitrogen, Carlsbad, USA), supplemented with 10% of FCS (fetal calf serum; PAA Laboratories, Pasching, Germany) and with 2% of B27 (Invitrogen). The medium is replaced every three days until the beginning of the experiment, and the cultures are conserved in an incubator at 37° C. and 5% CO2. The experiments are carried out after 7 to 8 days of culture in vitro. The calpain inhibitor N-acetyl-Leu-Leu-Nle-CHO (ALLN; Calbiochem), the general caspase inhibitor Z—V-A-D-fluoromethyl ketone (z-VAD; R1D Systems, Minneapolis, USA) and β-nicotinamide adenine dinucleotide hydrate (βNAD; Sigma) are introduced into the culture medium at the beginning of the experiments.
# In order to carry out the axotomy, a flow of 15 μl of medium containing 0.1% of saponin is produced for 2 minutes in the central chamber. In order to avoid the flow of detergent entering the microchannels, an overpressure is maintained in the somatic and axonal chambers throughout the experiment. After 2 minutes of flow, the medium containing the saponin is removed and the central macrochannel is rinsed with culture medium for 5 min. Fresh medium is then added to this channel.
# After a given culture time (optionally according to the moment at which the axotomy experiment is carried out), the neuron cultures are fixed with a 4% paraformaldehyde solution (Sigma) so as to undergo analysis by immunocytochemistry. The circuits are labeled by immunofluorescence with an anti-MAP2 antibody (rabbit IgG, 1:3000; Chemicon, Temecula, USA), and an anti-β-III-tubulin monoclonal antibody (mouse IgG, 1:3000; Sigma) for labeling the cytoskeletal proteins. The circuits are fluorescently labeled with Hoechst 33342 (1:25000; Sigma) for labeling the nucleus. In a separate experiment, the circuits were also labeled by immunofluorescence with an anti-glial fibrillary acidic protein antibody (GFAP, rabbit IgG, 1:5000; DakoCytomation, Glostrup, Denmark) which makes it possible to label the astrocytes. A part of the cultures was subjected to fixing and extraction. This procedure makes it possible to eliminate the tubulin free in the cytoplasm while at the same time fixing the microtubules. These cultures were labeled by immunofluorescence with an anti-a-tubulin monoclonal antibody conjugated to the fluorophore FITC (Sigma) and labeled with phalloidin linked to an Alexa Fluor 555 (Invitrogen) so as to reveal the microtubules and the actin cytoskeleton, respectively. The images were acquired using an inverted epifluorescence microscope (Zeiss, Goettingen, Germany) equipped with a CoolSnap HQ2 camera (Roper Scientific, Ottobrunn, Germany) and using the micro-manager acquisition software (http://www.micro-manager.org).
# The axonal degeneration is estimated by comparing the type of tubulin labeling of fragmented axons or of intact axons. Good survival, in culture, of the cortical neurons is dependent on the initial seeding density, which must be high. Consequently, a large number of cortical axons invade the central and distal chambers. Moreover, since the cortical axons have many branches, the immunohistochemical analysis of the axonal tubulin in the axonal chambers is therefore complex, and the axons are difficult to individualize. The proportion of axon entering the central chamber and emerging in the distal axonal chamber was estimated by calculating a ratio of intensity of overall fluorescence of the b3-tubulin labeling of identical surface areas captured in the central chamber and the distal axonal chamber. […]
# cortical axons = assay: Axotomy of the central portion of cortical axons in three-chamber device D4, Wallerian degeneration model (Example 15)
# Experimental: The microfluidic device represented in image 4a of FIG. 20 is similar to that described previously with reference to FIGS. 1C to 1H and comprises three chambers. It is device D4. This makes it possible to apply molecules of interest on the central portion of the axons, for example a detergent (Triton X100, 0.1%), applied for 1 min. […] In this example, although the cortical axons sectioned in their central portion are still intact after one hour of section, they degenerate after 4 h. This constitutes a model of Wallerian degeneration (degeneration of the distal portion of axons). The potential of compounds which protect against this effect can be evaluated by applying them specifically in one or more of the chambers of the device. […] This experiment was carried out with device D4. The experiment, carried out on a corticostriatal network, makes it possible to illustrate that it is possible to objectivize a phenomenon of synaptic degeneration after application of a stress at the cortical level (in this case axotomy) (disappearance of Vglu-1 labeling which is specific for cortical presynaptic structures). […] FIGS. 20 and 21 illustrate the consequences of the axotomy of cortical axons of a corticostriatal network. […]
# corticostriatal network = assay: Synaptic degeneration on a corticostriatal network after cortical axotomy, Vglut-1 presynaptic structures (Example 16); details: NAD added to striatal compartment at the time of axotomy / pretreated
# Experimental: Photographs a and b of FIG. 21 represent cortical, central and striatal chambers of reconstructed corticostriatal networks in three-chamber microfluidic devices.
# The neurons were labeled on MAP2 (blue), β3-tubulin (green) and Vglut-1 (red).
# Photograph c is representative of cortical-presynaptic structures (Vglut1, red) attached to striatable dendrites (MAP2, blue) after 1, 2, 4 and 6 hours of axotomy or controlled culture or culture pretreated with NAD.
# Photograph d illustrates the quantification of a presynaptic cortical structure attached to MAP2-positive striatal dendrites after cortical axotomy.
# This experiment was carried out with device D4. The experiment, carried out on a corticostriatal network, makes it possible to illustrate that it is possible to objectivize a phenomenon of synaptic degeneration after application of a stress at the cortical level (in this case axotomy) (disappearance of Vglu-1 labeling which is specific for cortical presynaptic structures). […] FIGS. 20 and 21 illustrate the consequences of the axotomy of cortical axons of a corticostriatal network. This axotomy causes the propagation of a signal resulting in rapid degeneration of the presynaptic compartment (FIG. 21) of the corticostriatal junction, and then in degeneration of the cortical axons (FIG. 20).
compound,measurement,setting,value
CN[C@@H]1C[C@H]2O[C@@](C)([C@@H]1OC)n1c3ccccc3c3c4c(c5c6ccccc6n2c5c31)C(=O)NC4 [staurosporin],axon degeneration induced by stress applied to the soma,"Cerebellar neurons; 1 μM staurosporin at the somatic level, axons in distal chamber, in 24 h",induces axon degeneration
[Cl-].[K+] [KCl],phosphorylation of the striatal erk kinase,striatal erk kinase,triggers phosphorylation
saponin,destruction of axon segments by detergent flow,"cortical neurons; 0.1% saponin, flow for 2 minutes in the central compartment",immediate destruction of the axon segments contained in the central compartment
Triton X100,section of axons by detergent,cortical axons; Triton X100 0.1% applied for 1 min on central portion of the axons,immediate section of the central portion of the axons
COC(=O)C[C@H](NC(=O)[C@H](C)NC(=O)[C@@H](NC(=O)OCc1ccccc1)C(C)C)C(=O)CF [zVAD] (Cbz-Val-Ala-Asp(OMe)-CH2F),axon-protecting effect against staurosporin-induced axonal degeneration,Cerebellar neurons,prevents this degeneration; also recorded: delays this axonal degeneration
same,occurrence of axon fragmentation after axotomy,cortical neurons,does not delay the occurrence of axon fragmentation
same,protective effect against axon fragmentation after axotomy,cortical neurons,absence of protective effect
"CCCC[C@@H](C=O)NC(=O)[C@H](CC(C)C)NC(=O)[C@H](CC(C)C)NC(C)=O [ALLN, N-acetyl-Leu-Leu-Nle-CHO] (Ac-Leu-Leu-[Nle]-aldehyde)",occurrence of axon fragmentation after axotomy,cortical neurons,does not delay the occurrence of axon fragmentation
same,protective effect against axon fragmentation after axotomy,cortical neurons,absence of protective effect
C[C@]12N[C@H](Cc3ccccc31)c1ccccc12 [MK801],phosphorylation of the striatal erk kinase,striatal erk kinase,inhibition
"NC(=O)c1ccc[n+]([C@@H]2O[C@H](COP(=O)([O-])OP(=O)(O)OC[C@H]3O[C@@H](n4cnc5c(N)ncnc54)[C@H](O)[C@@H]3O)[C@@H](O)[C@H]2O)c1 [NAD, β-nicotinamide adenine dinucleotide hydrate]",axon-protecting effect against staurosporin-induced axonal degeneration,Cerebellar neurons,delays this axonal degeneration
same,degeneration of transected cortical axons (axon-protecting effect),"cortical axons; after axotomy, NAD added to the striatal compartment at the time of axotomy, FIG. 20, hydrate",axon-protecting effect; also recorded: delays
same,presynaptic degeneration of the corticostriatal junction (Vglut-1),"corticostriatal network; FIG. 21, hydrate",delays presynaptic degeneration
same,presynaptic degeneration of the corticostriatal junction (Vglut-1),"corticostriatal network; FIG. 21, listed as NAD+, hydrate",Delays Deconnection
same,degeneration of cut axons,"cortical neurons; 5 mM pretreatment 24 h before axotomy, 8 h after axotomy (all control axons fragmented)",do not exhibit any sign of degeneration
same,persistence of axon protection,"cortical neurons; 5 mM pretreatment 24 h before axotomy, 24 hours after axotomy",protection disappears
same,signs of axonal degeneration after axotomy,cortical neurons; neurons pretreated 24 h before axotomy with 5 mM,delayed
